According to patent EP4122463A1, “DRUG IN THE FORM OF A COMPLEX OF 3,3'-DIINDOLYLMETHANE WITH Beta-CYCLODEXTRIN” (Kiselev, Vsevolod Ivanovich, priority 2020, dated 2021):

Legend:
[1] = Solubility of 3,3'-diindolylmethane as a function of concentration of various cyclodextrins; type: physicochemical; settings: solutions of α-, β- and γ-cyclodextrin, figure 2
From the text: Solubility of 3,3'-diindolylmethane was investigated as a function of concentration of various cyclodextrins. The following were used in the experiments: • α-cyclodextrin (αCD); • β-cyclodextrin (βCD); • γ-cyclodextrin (γCD).

[2] = Clinical comparison of effectiveness of water-soluble complexes and crystalline DIM in equal doses; type: in vivo; settings: all studied groups of patients
From the text: (§1) In clinical studies, effectiveness of a water-soluble complex based on cyclodextrins and crystalline 3,3'-diindolylmethane in equal doses was compared. […]

[3] = Concentration of 3,3'-diindolylmethane in the blood plasma of patients; type: in vivo; settings: DIM dosage 100 mg
From the text: as §1

[4] = cited from earlier work

- The concentration of DIM in plasma [3]: less than 30 ng / ml
Compound: c1ccc2c(Cc3c[nH]c4ccccc34)c[nH]c2c1 [DIM crystalline, 3,3'-diindolylmethane]
- maximum solubility of 3,3'-diindolylmethane [1]: maximum solubility of 3,3'-diindolylmethane is achieved in combination with β-cyclodextrin (βCD)
- effectiveness (dynamics in patients) [2]: absence of such
- Solubility of 3,3'-diindolylmethane in DMSO [4]: 18-20%
